These results are taken from patent US20260364124A1, “ANTI-C. DIFFICILE SMALL MOLECULE METABOLITES FROM DIET AND GUT MICROBIOME” (The Children's Medical Center Corporation, priority 2023, published 2026).

“Also recorded” adds a separate entry of the source.

The experiment has as its system B. uniformis AgshD. Briefly: In vitro aglycone liberation by B. uniformis gshD deletion mutant (LC-MS). More on the design: species or system Bacteroides uniformis ATCC 8492. Conditions: role: substrate; B. uniformis AgshD (FIGS. 5A, 5B). As to the method:
FIGS. 5A and 5B show microbiome-mediated polyphenol aglycone liberation. […] Step 2: Spent media was filter-sterilized. Step 3: C. difficile was grown in spent media from either vehicle or polydatin (top).
Generation of Bacteroides gene deletion mutants: Clean deletion mutants were created by allelic replacement whereby Bacteroides uniformis ATCC 8492 gshD (BACUNI_00919)was deleted. A modified pKNOCK-bla-ermGb suicide vector, pKNOCK-bla-ermGb_pheS*, that was previously engineered with a counter-selection system mediated by a variant phenylalanyl-tRNA synthetase (PheSA303G), lethal in the presence of 4-chloro-phenylalanine was leveraged. To generate deletion constructs, 1 kb regions flanking the genomic region-of-interest were amplified by PCR (Platinum SuperFi PCR Master Mix), purified, and cloned into the pKNOCK-bla-ermGb_pheS* plasmid in a three-piece ligation reaction. To mobilize resulting plasmids into Bacteroides, a triparental mating strategy was implemented. Overnight cultures of Bacteroides grown in BSG were diluted 50-fold into fresh pre-reduced BSG and grown to early exponential phase (OD600 ~0.1). The recipient strain was centrifuged at 4,000 rpm for 5 minutes and resuspended in 200 μL of 1× PBS. One-day-old E. coliDH5α lambda pir donor strain and E. coliDH5α helper strain with pRK 231 were scrapped from LB agar plates into 200 μL of 1× PBS. […]

`OC[C@H]1O[C@@H](Oc2cc(O)cc(/C=C/c3ccc(O)cc3)c2)[C@H](O)[C@@H](O)[C@@H]1O` [polydatin]: the “liberation of resveratrol from polydatin by gshD mutant” value is listed as “lacking the ability to metabolize polydatin; also recorded: ablated in B. uniformis AgshD”.
